Data on twelve compounds can be found in patent publication US9783573B2, “IAP antagonists” (BRISTOL-MYERS SQUIBB COMPANY, priority 2012, dated 2017).

For one assay, the target named is N-His-Tb-BIR3 (241-356, XIAP) (Homo sapiens (Human), UniProt P98170). The experiment in a line: biochemical. Format: binding. The note with it: fluoresceinated modified SMAC peptide, fluorescence polarization; read-out: XIAP BIR3 FPA IC50.
`CCN[C@@H](C)C(=O)N[C@H](C(=O)N[C@H](C(=O)N1Cc2cc(OCc3ccc(C(=O)N[C@H]4C[C@@H](C(=O)N[C@@H]5CCCc6ccccc65)N(C(=O)[C@@H](NC(=O)[C@H](C)NC)C(C)(C)C)C4)cc3)ccc2C[C@H]1C(=O)N[C@@H]1CCCc2ccccc21)C(C)(C)C)C(C)(C)C` [Example 40, (S)-7-((4-(((3S,5S)-1-((S)-3,3-Dimethyl-2-((S)-2-(methylamino)propanamido)butanoyl)-5-(((R)-1,2,3,4-tetrahydronaphthalen-1-yl)carbamoyl)pyrrolidin-3-yl)carbamoyl)benzyl)oxy)-2-((S)-2-((S)-2-((S)-2-(ethylamino)propanamido)-3,3-dimethylbutanamido)-3,3-dimethylbutanoyl)-N-((R)-1,2,3,4-tetrahydronaphthalen-1-yl)-1,2,3,4-tetrahydroisoquinoline-3-carboxamide]: the IC50 came to 660 nM. Regarding `CN[C@@H](C)C(=O)N[C@H](C(=O)N1Cc2ccc(OCc3ccc(C(=O)N[C@H]4C[C@@H](C(=O)N[C@@H]5CCCc6ccccc65)N(C(=O)[C@@H](NC(=O)[C@H](C)NC)C(C)(C)C)C4)cc3)cc2C[C@H]1C(=O)N[C@@H]1CCCc2ccccc21)C(C)(C)C` [Example 41, (S)-2-((S)-3,3-Dimethyl-2-((S)-2-(methylamino)propanamido)butanoyl)-6-((4-(((3S,5S)-1-((S)-3,3-dimethyl-2-((S)-2-(methylamino)propanamido)butanoyl)-5-(((R)-1,2,3,4-tetrahydronaphthalen-1-yl)carbamoyl)pyrrolidin-3-yl)carbamoyl)benzyl)oxy)-N-((R)-1,2,3,4-tetrahydronaphthalen-1-yl)-1,2,3,4-tetrahydroisoquinoline-3-carboxamide], the IC50 was 65 nM.

For the compound `CN[C@@H](C)C(=O)N[C@H](C(=O)N1Cc2ccc(OCc3ccc(C(=O)N[C@H]4C[C@@H](C(=O)NC5CCCc6ccccc65)N(C(=O)[C@@H](NC(=O)[C@H](C)NC)C(C)(C)C)C4)cc3)cc2C[C@@H]1C(=O)NC1CCCc2ccccc21)C(C)(C)C` (stereo partly drawn) [Example 42, (R)-2-((S)-3,3-Dimethyl-2-((S)-2-(methylamino)propanamido)butanoyl)-6-((4-(((3S,5S)-1-((S)-3,3-dimethyl-2-((5)-2-(methylamino)propanamido)butanoyl)-5-(((R)-1,2,3,4-tetrahydronaphthalen-1-yl)carbamoyl)pyrrolidin-3-yl)carbamoyl)benzyl)oxy)-N-((R)-1,2,3,4-tetrahydronaphthalen-1-yl)-1,2,3,4-tetrahydroisoquinoline-3-carboxamide], the 50% inhibitory concentration (IC50) came out at 240 nM.

For the compound `CC[C@H](NC)C(=O)N[C@H](C(=O)N1Cc2cc(OCc3ccc(C(=O)N[C@H]4C[C@@H](C(=O)N[C@@H]5CCCc6ccccc65)N(C(=O)[C@@H](NC(=O)[C@H](C)NC)C(C)(C)C)C4)cc3)ccc2C[C@H]1C(=O)N[C@@H]1CCCc2ccccc21)C(C)(C)C` [Example 43], the IC50 came out at 130 nM. As for `CN[C@@H](C)C(=O)N[C@H](C(=O)N1Cc2cc(OC(=O)c3ccc(C(=O)N[C@H]4C[C@@H](C(=O)N[C@@H]5CCCc6ccccc65)N(C(=O)[C@@H](NC(=O)[C@H](C)NC)C(C)(C)C)C4)cc3)ccc2C[C@H]1C(=O)N[C@@H]1CCCc2ccccc21)C(C)(C)C` [Example 46, (S)-2-((S)-3,3-Dimethyl-2-((S)-2-(methylamino)propanamido)butanoyl)-3-(((R)-1,2,3,4-tetrahydronaphthalen-1-yl)carbamoyl)-1,2,3,4-tetrahydroisoquinolin-7-yl 4-(((3S,5S)-1-((S)-3,3-dimethyl-2-((S)-2-(methylamino)propanamido)butanoyl)-5-(((R)-1,2,3,4-tetrahydronaphthalen-1-yl)carbamoyl)pyrrolidin-3-yl)carbamoyl)benzoate], the IC50 came to 69 nM. With `CN[C@@H](C)C(=O)N[C@H](C(=O)N1Cc2cc(NC(=O)c3ccc(CO[C@H]4C[C@@H](C(=O)N[C@@H]5CCCc6ccccc65)N(C(=O)[C@@H](NC(=O)[C@H](C)NC)C(C)(C)C)C4)cc3)ccc2C[C@H]1C(=O)N[C@@H]1CCCc2ccccc21)C(C)(C)C` [Example 47, (S)-2-((S)-3,3-Dimethyl-2-((S)-2-(methylamino)propanamido)butanoyl)-7-(4-((((3S,5S)-1-((S)-3,3-dimethyl-2-((S)-2-(methylamino)propanamido)butanoyl)-5-(((R)-1,2,3,4-tetrahydronaphthalen-1-yl)carbamoyl)pyrrolidin-3-yl)oxy)methyl)benzamido)-N—((R)-1,2,3,4-tetrahydronaphthalen-1-yl)-1,2,3,4-tetrahydroisoquinoline-3-carboxamide], the IC50 was 67 nM. On the same count and under the same terms, as for `CN[C@@H](C)C(=O)N[C@H](C(=O)N1Cc2cc(OC(=O)c3ccc(CO[C@H]4C[C@@H](C(=O)N[C@@H]5CCCc6ccccc65)N(C(=O)[C@@H](NC(=O)[C@H](C)NC)C(C)(C)C)C4)cc3)ccc2C[C@H]1C(=O)N[C@@H]1CCCc2ccccc21)C(C)(C)C` [Example 48, (S)-2-((S)-3,3-Dimethyl-2-((S)-2-(methylamino)propanamido)butanoyl)-3-(((R)-1,2,3,4-tetrahydronaphthalen-1-yl)carbamoyl)-1,2,3,4-tetrahydroisoquinolin-7-yl 4-((((3S,5S)-1-((S)-3,3-dimethyl-2-((S)-2-(methylamino)propanamido)butanoyl)-5-(((R)-1,2,3,4-tetrahydronaphthalen-1-yl)carbamoyl)pyrrolidin-3-yl)oxy)methyl)benzoate], the figure is 92 nM; as for `CN[C@@H](C)C(=O)N[C@H](C(=O)N1Cc2cc(NC(=O)c3ccc(CO[C@H]4C[C@@H](C(=O)N[C@@H]5CCCc6ccccc65)N(C(=O)[C@@H](NC(=O)[C@H](C)NC)C(C)(C)C)C4)cc3)ccc2C[C@H]1C(=O)N[C@H](C)c1ccccc1F)C(C)(C)C` [Example 50, (S)-2-((S)-3,3-Dimethyl-2-((S)-2-(methylamino)propanamido)butanoyl)-7-(4-((((3S,5S)-1-((S)-3,3-dimethyl-2-((S)-2-(methylamino)propanamido)butanoyl)-5-(((R)-1,2,3,4-tetrahydronaphthalen-1-yl)carbamoyl)pyrrolidin-3-yl)oxy)methyl)benzamido)-N-((R)-1-(2-fluorophenyl)ethyl)-1,2,3,4-tetrahydroisoquinoline-3-carboxamide], 53 nM; as for `CN[C@@H](C)C(=O)N[C@H](C(=O)N1Cc2cc(NC(=O)c3cccc(CO[C@H]4C[C@@H](C(=O)N[C@@H]5CCCc6ccccc65)N(C(=O)[C@@H](NC(=O)[C@H](C)NC)C(C)(C)C)C4)c3)ccc2C[C@H]1C(=O)N[C@@H]1CCCc2ccccc21)C(C)(C)C` [Example 52, (S)-2-((S)-3,3-Dimethyl-2-((S)-2-(methylamino)propanamido)butanoyl)-7-(3-((((3S,5S)-1-((S)-3,3-dimethyl-2-((S)-2-(methylamino)propanamido)butanoyl)-5-(((R)-1,2,3,4-tetrahydronaphthalen-1-yl)carbamoyl)pyrrolidin-3-yl)oxy)methyl)benzamido)-N-((R)-1,2,3,4-tetrahydronaphthalen-1-yl)-1,2,3,4-tetrahydroisoquinoline-3-carboxamide], 42 nM.

Regarding `CN[C@@H](C)C(=O)N[C@H](C(=O)N1Cc2cc(NC(=O)c3ccc4ccn(C(=O)NC5C[C@@H](C(=O)NC6CCCc7ccccc76)N(C(=O)[C@@H](NC(=O)[C@H](C)NC)C(C)(C)C)C5)c4c3)ccc2C[C@H]1C(=O)NC1CCCc2ccccc21)C(C)(C)C` (stereo partly drawn) [Example 53, N^6-((3S)-2-((S)-3,3-Dimethyl-2-((S)-2-(methylamino)propanamido)butanoyl)-3-((1,2,3,4-tetrahydronaphthalen-1-yl)carbamoyl)-1,2,3,4-tetrahydroisoquinolin-7-yl)-N^1-((5S)-1-((S)-3,3-dimethyl-2-((S)-2-(methylamino)propanamido)butanoyl)-5-((1,2,3,4-tetrahydronaphthalen-1-yl)carbamoyl)pyrrolidin-3-yl)-1H-indole-1,6-dicarboxamide], the IC50 worked out at 140 nM.

The target in the next assay is His-BIR3 (241-356, XIAP) (Homo sapiens (Human), UniProt P98170). In words: XIAP-BIR3/SMAC Homogeneous Time Resolved Fluorescence (HTRF) Assay. To be noted: fluorescein labeled SMAC peptide. Format: binding. On the procedure:
B. XIAP-BIR3/SMAC Homogeneous Time Resolved Fluorescence (HTRF) Assay
(§1) Assays were performed in black, flat-bottom, 384-well plates.
As to `CN[C@@H](C)C(=O)N[C@H](C(=O)N1Cc2cc(NC(=O)c3ccc(C(=O)N[C@H]4C[C@@H](C(=O)N[C@@H]5CCCc6ccccc65)N(C(=O)[C@@H](NC(=O)[C@H](C)NC)C(C)(C)C)C4)cc3)ccc2C[C@H]1C(=O)N[C@H](C)c1ccccc1F)C(C)(C)C` [Example 11, N^1-((S)-2-((S)-3,3-Dimethyl-2-((S)-2-(methylamino)propanamido)butanoyl)-3-(((R)-1-(2-fluorophenyl)ethyl)carbamoyl)-1,2,3,4-tetrahydroisoquinolin-7-yl)-N^4-((3S,5S)-1-((S)-3,3-dimethyl-2-((S)-2-(methylamino)propanamido)butanoyl)-5-(((R)-1,2,3,4-tetrahydronaphthalen-1-yl)carbamoyl)pyrrolidin-3-yl)terephthalamide], half-maximal inhibition (IC50) was put at 18 nM.

In a further assay the target is His-BIR2-3 (125-356, C202A/C213G, XIAP) (Homo sapiens (Human), UniProt P98170, C202A/C213G). In words: XIAP-BIR2-3 Dimeric SMAC Peptide Homogeneous Time Resolved Fluorescence (HTRF) Assay. The format is binding. The note with it: fluorescein labeled dimeric SMAC peptide. On the procedure:
D. XIAP-BIR2-3 Dimeric SMAC Peptide Homogeneous Time Resolved Fluorescence (HTRF) Assay
as §1
`CN[C@@H](C)C(=O)N[C@H](C(=O)N1Cc2ccc(NC(=O)c3ccc(C(=O)N[C@H]4C[C@@H](C(=O)N[C@@H]5CCCc6ccccc65)N(C(=O)[C@@H](NC(=O)[C@H](C)NC)C(C)(C)C)C4)cc3)cc2C[C@H]1C(=O)N[C@@H]1CCCc2ccccc21)C(C)(C)C` [Example 2, N^1—((S)-2-((S)-3,3-Dimethyl-2-((S)-2-(methylamino)propanamido)butanoyl)-3-(((R)-1,2,3,4-tetrahydronaphthalen-1-yl)carbamoyl)-1,2,3,4-tetrahydroisoquinolin-6-yl)-N^4-((3S,5S)-1-((S)-3,3-dimethyl-2-((S)-2-(methylamino)propanamido)butanoyl)-5-(((R)-1,2,3,4-tetrahydronaphthalen-1-yl)carbamoyl)pyrrolidin-3-yl)terephthalamide] yielded an IC50 of 4 nM. Same read-out and setting: as for `CN[C@@H](C)C(=O)N[C@H](C(=O)N1Cc2cc(NC(=O)c3ccc(C(=O)N[C@H]4C[C@@H](C(=O)N[C@@H]5CCCc6ccccc65)N(C(=O)[C@@H](NC(=O)[C@H](C)NC)C(C)(C)C)C4)cc3)ccc2C[C@H]1C(=O)N[C@H](C)c1ccccc1F)C(C)(C)C` [Example 11, N^1-((S)-2-((S)-3,3-Dimethyl-2-((S)-2-(methylamino)propanamido)butanoyl)-3-(((R)-1-(2-fluorophenyl)ethyl)carbamoyl)-1,2,3,4-tetrahydroisoquinolin-7-yl)-N^4-((3S,5S)-1-((S)-3,3-dimethyl-2-((S)-2-(methylamino)propanamido)butanoyl)-5-(((R)-1,2,3,4-tetrahydronaphthalen-1-yl)carbamoyl)pyrrolidin-3-yl)terephthalamide], the figure is 12 nM.
